Measured values reported in US20210121505A1, “COMPOSITIONS AND METHODS FOR TREATING INFLAMMATORY BOWEL DISEASES” (Seres Therapeutics, Inc., priority 2018, published 2021).

Assays:
[1] = system: intestinal epithelial cells (HT29); assay: IL-8 secretion assay, TNF-α-stimulated intestinal epithelial cells; type: cell-based; details: bile acid 62.5, 125, 250 μM, 1.25 ng/mL TNF-α, relative to no bile acid control, FIG. 6
Procedure: Since IBD primarily affects the intestinal tissues, whether the anti-inflammatory effects observed in monocytes and PBMCs were also true in intestinal epithelial cells (HT29) was assessed as described below.
HT29 cells, cultured in McCoys Medium supplemented with 10% FBS, GlutaMAX and Pen/Strep were plated at a density of 50 k cells/well in 96-well format and allowed to grow for 5 days until fully confluent. Culture medium was changed every two days. On day 5, cells were pre-treated for 1 hour with 250 μM, 125 μM or 62.5 μM bile acid compounds before exposure to 1.25 ng/mL TNF-α. Cells were incubated overnight (16 h) and culture supernatants were collected for IL-8 protein quantification by ELISA. IL-8 levels of test samples were normalized to inflammatory controls, DMSO pre-treated samples (i.e., no bile acids) that were exposed to the 1.25 ng/mL TNF-α.

[2] = system: LPS-stimulated peripheral blood mononuclear cells (PBMCs); assay: TNF-α and IL-10 secretion assay, LPS-stimulated PBMCs; type: cell-based, Human; details: LPS-activated PBMCs; bile acid 12.5, 25, 50 μM; LPS 1 ng/mL; FIGS. 4A and 4B
Procedure: To better understand the possible relationship between the increased level of certain secondary bile acids and ulcerative colitis remission, monocytes and PBMCs were activated with LPS in the presence of varying concentrations of different primary and secondary bile acids in their conjugated and unconjugated forms. The amount of TNF-α and IL-10 produced by the activated cells was measured as described below.
Human buffy coat was obtained from Bioreclamation and shipped overnight on ice. Buffy coat was diluted 1:1 with PBS and layered on top of a Ficoll-Paque (GE Healthcare Cat #17-1440-03) in 50 mL falcon tubes. Samples were spun at 500×g for 20 min at room temperature with no brake. PBMCs were aspirated at the […] gradient layer and washed 3 times with PBS. Cells were counted with a hemocytometer to determine cell viability and concentration. Cells were plated onto 96 well plate and incubated at 37 C, 5% CO2 for 1 hour. Following this, bile acids were added at a final concentration of 12.5 μM, 25 μM and 50 μM for one hour prior to addition of LPS (1 ng/mL). After incubation of 16-20 hours, the cell culture media were collected for cytokine analysis. Cytokines were assayed using the Milliplex Human Cytokine kit (Luminex; Millipore), assaying IL-10 and TNF-α. Monocytes were isolated from PBMCs using the Miltenyi Biotec Pan Monocyte Isolation Kit (Cat No: 130-096-537) as per manufacturer's instructions and assayed as described above.

## CC(CCC(=O)NCC(=O)O)C1CCC2C3CCC4CC(O)CCC4(C)C3CC(O)C12C (stereo not drawn) [gDCA, glyco-deoxycholic acid]
[1]
  IL-8 production: decreased IL-8 production in a dose-dependent manner
[2]
  anti-inflammatory effects (higher IL-10, lower TNF-α): greatest anti-inflammatory effects

## C[C@H](CCC(=O)NCCS(=O)(=O)O)[C@H]1CC[C@H]2[C@@H]3CC[C@@H]4C[C@H](O)CC[C@]4(C)[C@H]3C[C@H](O)[C@]12C [tDCA, tauro-deoxycholic acid]
[1]
  IL-8 production: decreased IL-8 production in a dose-dependent manner
[2]
  anti-inflammatory effects (higher IL-10, lower TNF-α): greatest anti-inflammatory effects

## C[C@H](CCC(=O)NCCS(=O)(=O)O)[C@H]1CC[C@H]2[C@@H]3CC[C@@H]4C[C@H](OS(=O)(=O)O)CC[C@]4(C)[C@H]3CC[C@]12C [tLCA, tauro-sulfo-lithocholic acid]
[1]
  IL-8 production: decreased IL-8 production in a dose-dependent manner
[2]
  anti-inflammatory effects (higher IL-10, lower TNF-α): greatest anti-inflammatory effects
